# Results: patent publication US9284369B2, “Inhibition of angiogenesis” (Genentech, Inc., priority 2007, dated 2016)
# Columns and labels:
# Assay type in all cases: cell-based
# [1] = tested on: PKR2/EG-VEGFR2 expression; assay: Regulation of PKR2/EG-VEGFR2 expression in human bone marrow cells and neutrophils
# From the text: Taqman reagents for human PKR1/EG-VEGFR1 and PKR2/EG-VEGFR2 were obtained from Applied Biosystems.
# (§1) Recombinant human MCP-1, MIP-1α, MIP-1β, MIP-2, bFGF, VEGF, GM-CSF, G-CSF, SDF-1α, M-CSF, Erythropoietin (EPO) and TNFα were purchased from R&D Systems (Minneapolis, Minn.). Recombinant human IL-8, IFNγ, Bv8 (Prokineticin-2), IL-4, IL-10, IL-13, TGF-β were from PeproTech Inc. (Rocky Hill, N.J.). SCF (Stem Cell factor) was from Invitrogen Biosource (Carlsbad, Calif.). In some cases, G-CSF from Amgen (Neupogen/Filgrastim) was used. All cytokines were used at 10 ng/ml. Freshly purified cells were washed and re-suspended in HBSS media containing 0.2% BSA (low endotoxin, Serologicals Corp. Norcross, Ga.). Two million cells were incubated in 24-well plates with various cytokines and chemokines for 4 hr at 37° C. in a 5% CO2 incubator. Cells were then transferred into eppendorf tubes, centrifuged and lysed with RNA lysis buffer (Qiagen, Valencia, Calif.). Bv8 expression was assessed by Taqman with RPL19 (Ribosomal Protein L19) as the internal control gene.
# [2] = tested on: Bv8 expression; assay: Bv8 expression in human leukemia cell lines
# Experimental: U937, HL-60, THP-1, Hel 92.1.7, KG-1, K562, Jurkat cells were obtained from the ATCC® (Manassas, Va.). Most cells were grown in 10% FBS-containing RPMI. KG-1 cells were grown in 20% FBS-containing Iscove's modified Dulbecco's medium. For THP-1 cells, 10% FBS-containing RPMI was used with Sodium Pyruvate, HEPES and β-mercaptoethanol. For regulation studies, 1 million cells with viability higher than 95% were used. Regulation studies were performed under both normoxia and hypoxia conditions for 4 hr in 1 ml HBSS media containing 0.2% BSA.
# [3] = tested on: Bv8 expression; assay: Regulation of Bv8 gene expression in cultured mouse BMMNCs (Taqman); conditions: for up-regulation of Bv8 in unsorted BMMNCs: 10 ng/ml, 4 hr
# Experimental: RNA from tissues or cells was prepared using the RNeasy Mini Kit® (Qiagen). 50 ng total RNA per reaction was used for the real time PCR (Taqman™) analysis. For mouse/human Bv8 and EG-VEGF/Bv8 receptor 1 (PKR-1/EG-VEGFR1, R-1), testis RNA (BD Biosciences) served as control. For mouse/human EG-VEGF/Bv8 receptor 2 (PKR-2/EG-VEGFR2, R2), hypothalamus or whole brain (BD Biosciences) served as the control tissues. Reactions were run on 9600 Emulation mode of 7500 Real […] time PCR system (Applied Biosystems) and the absolute quantification with standard curve was used with Sequence Detection System (SDS) software. The expression level of each gene was further quantified against the house-keeping gene RPL19 in the same sample. To confirm the expression of VEGFR-1, VEGFR-2, EG-VEGF/Bv8 R1 and EG-VEGF/Bv8 R2 in the tumor-associated endothelial cells, standard RT-PCR was conducted using the Titan One Tube™ RT-PCR system (Roche) and the end products were checked on 2% agarose gel (Invitrogen) for the correct size. The sequence of Taqman™ primers are as follows: […]
# Recombinant mouse MCP-1, MIP-1α, MIP-1β, MIP-2, bFGF, VEGF, GM-CSF, G-CSF, SDF-1 and TNFα were purchased from R&D Systems (Minneapolis, Minn.). Recombinant mouse KC, IFNγ, Bv8 (Prokineticin-2), IL-4, IL-10, IL-13, TGF-β were from PeproTech Inc. (Rocky Hill, N.J.). […] Conditioned media at 1:3 dilution were used (final FBS concentration was 0.17%). Data were normalized against total cell number. BM cells were flushed from mouse leg bones with DMEM containing 10% FBS. Cells were centrifuged at 1200 rpm for 5 min and resuspended in HBSS media containing 0.2% BSA (low endotoxin, Serologicals Corp. Norcross, Ga.). Two million cells were incubated in 24-well plates with various cytokines for 4 hr at 37° C. in a 5% CO2 incubator. Cells were then transferred in eppendorf tubes, centrifuged and lysed by RNA lysis buffer (Qiagen, Valencia, Calif.). Bv8 expression was assessed by Taqman™ with RPL19 (Ribosomal Protein L19) as the internal control gene. In some cases, CD11b+Gr1+ or CD11b−Gr1− BM cells were obtained using FACS sorting.
# [4] = tested on: Bv8 expression; assay: Regulation of Bv8 gene expression in cultured human blood and bone marrow cells (Taqman); conditions: for induction of Bv8 expression in human neutrophils and whole bone marrow cells / Bv8 expression in monocytes and lymphocytes: 10 ng/ml, 4 hr
# Experimental: RNA was prepared using the RNeasy™ Mini Kit (Qiagen). 50 ng total RNA per reaction was used for the real time PCR (Taqman) analysis. For human Bv8, testis RNA (BD Biosciences) served as control. Reactions were run on 9600 Emulation mode of 7500 Real time PCR system (Applied Biosystems, Foster City, Calif.) and the absolute quantification with standard curve was used with Sequence Detection System (SDS) software. The expression level of each gene was further quantified relative to the housekeeping gene RPL19 in the same sample. The sequences of Taqman primers are as follows: Human Bv8 forward: ATG GCA CGG AAG CTA GGA (SEQ ID NO: 10), reverse: GCAGAGCTGAAGTCCTCTTGA (SEQ ID NO: 11), probe: TGCTGCTGGACCCTTCCTAAACCT (SEQ ID NO: 12); Human RPL19 forward: CGC AAG CGC CGT GAA (SEQ ID NO: 28), reverse: GGTCTCTTCCTCCTTGGATAAAGTC (SEQ ID NO: 29), probe: CCAGGCCAAGAAGGAGGAGATCATCA (SEQ ID NO: 30). Human specific VEGF forward: AAT GAC GAG GGC CTG GAG T (SEQ ID NO: 31), reverse: TTGATCCGCATAATCTGCATG (SEQ ID NO: 32), probe: TGTGCCCACTGAGGAGTCCAACATCA (SEQ ID NO: 33).
# as §1
# [5] = tested on: human neutrophils; assay: Chemotaxis of peripheral blood neutrophils
# Experimental: 10^6 cells were washed with HBSS containing 0.2% BSA before putting into transwell insert with 5 μm pore size (Corning Incorporated, Lowell, Mass.). In the lower chamber, media alone or media with various cytokines at various concentrations (maximum at 200 ng/ml) was added. After 3 hr at 37° C., cells in the lower chamber were transferred, mixed with 9 ml ZPAK solution and counted on Z2 Coulter Particle Count and Size Analyzer (Beckman Coulter, Fullerton, Calif.).
molecule,measurement,setting,value
GM-CSF: recombinant mouse or human granulocyte-macrophage-CSF (R&D Systems),regulation of PKR2/EG-VEGFR2 in human bone marrow,[1],regulate PKR2/EG-VEGFR2 to a significant level
same,up-regulation of PKR2/EG-VEGFR2 expression in human neutrophils,"[1]; 4 hr incubation, average",4 fold
same,Bv8 expression in HL-60,[2],Neither G-CSF nor GM-CSF affected Bv8 expression
same,induction of Bv8 expression in leukemia cell lines,[2]; any of the cell lines tested,no significant induction
same,effect on Bv8 expression,[3]; BMMNCs and sorted subsets (FIG. 1 c&d),no effect
same,induction of Bv8 expression in human neutrophils and whole bone marrow cells,[4],~2.5 fold
same,inhibition of Bv8 expression in human monocytes,[4]; 4 hr treatment,about 75%
IL-1β: cytokine interleukin-1β,induction of Bv8 expression in human neutrophils and whole bone marrow cells,[4],no stimulatory effect
IL-6: cytokine interleukin-6,up-regulation of Bv8 in unsorted BMMNCs,[3],did not show any significant stimulation
same,induction of Bv8 expression in human neutrophils and whole bone marrow cells,[4],no stimulatory effect
IL-8: recombinant human IL-8 (PeproTech),concentration required to stimulate neutrophil migration,[5],20 nM
MCP-1: recombinant human MCP-1 (R&D Systems),effect on neutrophil migration,"[5]; all concentrations tested, data not shown",did not show any effect
SCF: Stem Cell factor (Invitrogen Biosource),induction of Bv8 expression in human neutrophils and whole bone marrow cells,[4],no effect
SDF-1: recombinant mouse SDF-1 (R&D Systems),up-regulation of Bv8 in unsorted BMMNCs,[3],did not show any significant stimulation
SDF-1α,Bv8 expression in monocytes and lymphocytes,[4],significant stimulatory effect only on monocytes
same,concentration required to stimulate neutrophil migration,[5],20 nM
"M-CSF: recombinant human M-CSF (R&D Systems) (protein, UniProt P09603 33-554, looked up) Macrophage colony-stimulating …: EEVSEYCSHMIGSGHLQSLQRLIDSQMETSCQITFEFVDQEQLKDPVCYLKKAFLLVQDIMEDTMRFRDNTPNAIAIVQLQELSLRLKSCFTKDYEEHDKACVRTFYETPLQLLEKVKNVFNETKNLLDKDWNIFSKNCNNSFAECSSQDVVTKPDCNCLYPKAIPSSDPASVSPHQPLAPSMAPVAGLTWEDSEGTEGSSLLPGEQPLHTVDPGSAKQRPPRSTCQSFEPPETPVVKDSTIGGSPQPRPSVGAFNPGMEDILDSAMGTNWVPEEASGEASEIPVPQGTELSPSRPGGGSMQTEPARPSNFLSASSPLPASAKGQQPADVTGTALPRVGPVRPTGQDWNHTPQKTDHPSALLRDPPEPGSPRISSLRPQGLSNPSTLSAQPQLSRSHSSGSVLPLGELEGRRSTRDRRSPAEPEGGPASEGAARPLPRFNSVPLTDTGHERQSEGSFSPQLQESVFHLLVPSVILVLLAVGGLLFYRWRRRSHQEPQRADSPLEQPEGSPLTQDDRQVELPV",induction of Bv8 expression in human neutrophils and whole bone marrow cells,[4],no effect
"IL-10: recombinant human IL-10 (PeproTech) (protein, UniProt P22301 19-178, looked up) Interleukin-10: SPGQGTQSENSCTHFPGNLPNMLRDLRDAFSRVKTFFQMKDQLDNLLLKESLLEDFKGYLGCQALSEMIQFYLEEVMPQAENQDPDIKAHVNSLGENLKTLRLRLRRCHRFLPCENKSKAVEQVKNAFNKLQEKGIYKAMSEFDIFINYIEAYMTMKIRN",Bv8 expression in monocytes and lymphocytes,[4],up-regulated
